We go through one molecule from patent US20260013502A1, “METHOD FOR TERMINATING COVER CROP GROWTH” (SUMITOMO CHEMICAL COMPANY, LIMITED, priority 2022, published 2026).

The test system of assay [1] is cereal rye (Secale cereale). The assay is described as follows: Example 7: greenhouse pot test, foliar application, termination of cereal rye growth. The assay is classed as in vivo. The note with it: cereal rye, greenhouse; death of terminal and lateral buds in all 3 pots; epyrifenacil/saflufenacil 25 g/ha applied 21 days after seeding, glyphosate-potassium salt 1,543 g/ha applied 15 days after seeding. The procedure:
A plastic pot was filled with soil, and cereal rye (Secale cereale) was seeded and grown in a greenhouse. Fifteen days after seeding, RoundupPowerMax was diluted with water, and then the cereal rye was subjected to foliar application from above using an automatic sprayer at a spray volume of 200 L/ha to achieve an application rate of 1,543 g/ha as glyphosate-potassium salt.
At the same time, the cereal rye was similarly seeded in another plastic pot and grown. Twenty-one days after seeding, epyrifenacil emulsifiable concentrate (55 g/L) or saflufenacil suspension (341 g/L) was diluted with water containing 1% (v/v) adjuvant Agri-Dex, and then the cereal rye was subjected to foliar application from above using an automatic sprayer at a spray volume of 200 L/ha to achieve an application rate of 25 g/ha.
After application with the herbicide, the cereal rye was grown in a greenhouse, and in case the growth was terminated, the above-ground parts were harvested at termination of the growth and the dry matter weight was measured. In this test, the growth was judged to be terminated when death of terminal and lateral buds was visually confirmed. The date at the beginning of the onset of effect, the growth termination date, and the dry matter weight at the time of growth termination are shown in Table 1. The onset of the effect was judged by visually observing the change in leaf color. Application with each herbicide was performed using three pots. The date at the beginning of the onset of effect and the growth termination date in the table were dates on which the onset of effect and growth termination were confirmed in all three pots, respectively. The dry matter weight was the average of the three pots.

The subject of assay [2] is cereal rye (Secale cereale). Description: Example 9: outdoor pot test, foliar application, termination of cereal rye growth. It is filed as in vivo. The note with it: cereal rye, outdoors, applied 24 days after seeding, epyrifenacil/saflufenacil 20 g/ha, glyphosate-potassium salt 1,543 g/ha. The procedure: A plastic pot was filled with soil, and cereal rye (Secale cereale) was seeded and grown outdoors. Twenty-four days after seeding, RoundupPowerMax was diluted with water, and then the cereal rye was subjected to foliar application from above using an automatic sprayer at a spray volume of 200 L/ha to achieve an application rate of 1,543 g/ha as glyphosate-potassium salt.
At the same time, the cereal rye was similarly seeded in another plastic pot and grown. Twenty-four days after seeding, epyrifenacil emulsifiable concentrate (55 g/L) or saflufenacil suspension (341 g/L) was diluted with water containing 1% (v/v) adjuvant Agri-Dex, and then the cereal rye was subjected to foliar application from above using an automatic sprayer at a spray volume of 200 L/ha to achieve an application rate of 20 g/ha.
At the same time, the cereal rye was similarly seeded in another plastic pot and grown. Twenty-four days after seeding, the above-ground parts were harvested and the dry matter weight (hereinafter referred to as untreated dry matter weight) was measured.
The cereal rye applied with the herbicide was grown outdoors after application with the herbicide, and in case the growth was terminated, the above-ground parts were harvested at termination of the growth and the dry matter weight was measured. In this test, the growth was judged to be terminated when death of terminal and lateral buds was visually confirmed. The date at the beginning of the onset of effect, the growth termination date, and the dry matter weight at the time of growth termination are shown in Table 3. The onset of the effect was judged by visually observing the change in leaf color. Application with each herbicide was performed using seven pots. The date at the beginning of the onset of effect and the growth termination date in the table were dates on which the onset of effect and growth termination were confirmed in all seven pots, respectively. The incremental dry matter weight was the value calculated by the following formula (1).
Incremental dry matter weight=average dry matter weight at the time of growth termination−average untreated dry matter weight 24 days after seeding Formula (1): • Average dry matter weight at the time of growth termination: average value of dry matter weights of 7 pots at the time of growth termination • Average untreated dry matter weight 24 days after seeding: average value of untreated dry matter weights of 7 pots

Turning to `CC(C)N(C)S(=O)(=O)NC(=O)c1cc(-n2c(=O)cc(C(F)(F)F)n(C)c2=O)c(F)cc1Cl` [Saflufenacil, saflufenacil], the Growth termination date result in assay [1] is “failed to terminate the growth”; in assay [2] (death of terminal and lateral buds in all 7 pots), “failed to terminate the growth”. Besides, the “Date at the beginning of the onset of effect” value in assay [2] (visual change in leaf color in all 7 pots, day relative to application) is listed as “Day after”.
